Reference: US5679701A (priority 1996, dated 1997)
“And” between values parts separate entries of the source, which are not always exact repeats. Identical values can stand only once. “Also recorded” adds a separate entry of the source. Like-named read-outs stand apart in the source and are kept apart here.

Legend:
[1] = biological target: T1, Sarcoplasmic Reticular Ca^++ -Release Channel (ryanodine receptor) (Oryctolagus cuniculus, UniProt P11716); details: Table II; footnote * J. MED. CHEM. 30 710 (1987); cited from earlier work
T1 construct: skeletal sarcoplasmic reticulum membrane vesicles; from tissue; host or cells: skeletal muscle sarcoplasmic reticulum membrane vesicles

[2] = biological target: T2, ryanodine receptor (skeletal sarcoplasmic reticulum membrane vesicles) (Oryctolagus cuniculus, UniProt P11716); assay: biochemical; assay type: binding; details: for IC50: read-out: IC50; for Kd: read-out: KD
T2 construct: skeletal sarcoplasmic reticulum membrane vesicles; from tissue; host or cells: skeletal muscle sarcoplasmic reticulum membrane vesicles

[3] = system: skeletal muscle sarcoplasmic reticulum (SR); details: cited from earlier work
[4] = biological target: SR Ca^2+ release channel (junctional SR vesicles from rabbit skeletal muscle) (Oryctolagus cuniculus, UniProt P11716); assay: biochemical; assay type: biochemical; details: for closing (deactivation) of the SR CRC (in words): higher concentrations, up to 1 mM for V-II, XXI preliminary; for pharmacological profile (in words): vs biphasic profile of ryanodine
Procedure: Briefly, junctional SR vesicles from rabbit skeletal muscle were passively loaded with. ^45 Ca^2+ in the presence and absence of the esters. Ca^2+ -efflux was then initiated by diluting the vesicles 100-fold into a low Ca^2+ -concentration. ^45 Ca^2+ remaining in the vesicles was determined after a 3 sec. efflux period by termination and filtration of the vesicles followed by liquid scintillation counting.

[5] = system: mammalian skeletal muscle; details: cited from earlier work
[6] = system: SR Ca^++ release channel/ryanodine receptor (cardiac and skeletal muscle vesicles); assay type: biochemical
mammalian cardiac muscle = details: cited from earlier work
[7] = biological target: T1, Sarcoplasmic Reticular Ca^++ -Release Channel (ryanodine receptor); assay: biochemical; assay type: binding; details: for relative binding affinity compared with ryanodine (in words): vs ryanodine
[8] = 45Ca2+ efflux, skeletal SR vesicles

T2 sequence (P11716 whole entry): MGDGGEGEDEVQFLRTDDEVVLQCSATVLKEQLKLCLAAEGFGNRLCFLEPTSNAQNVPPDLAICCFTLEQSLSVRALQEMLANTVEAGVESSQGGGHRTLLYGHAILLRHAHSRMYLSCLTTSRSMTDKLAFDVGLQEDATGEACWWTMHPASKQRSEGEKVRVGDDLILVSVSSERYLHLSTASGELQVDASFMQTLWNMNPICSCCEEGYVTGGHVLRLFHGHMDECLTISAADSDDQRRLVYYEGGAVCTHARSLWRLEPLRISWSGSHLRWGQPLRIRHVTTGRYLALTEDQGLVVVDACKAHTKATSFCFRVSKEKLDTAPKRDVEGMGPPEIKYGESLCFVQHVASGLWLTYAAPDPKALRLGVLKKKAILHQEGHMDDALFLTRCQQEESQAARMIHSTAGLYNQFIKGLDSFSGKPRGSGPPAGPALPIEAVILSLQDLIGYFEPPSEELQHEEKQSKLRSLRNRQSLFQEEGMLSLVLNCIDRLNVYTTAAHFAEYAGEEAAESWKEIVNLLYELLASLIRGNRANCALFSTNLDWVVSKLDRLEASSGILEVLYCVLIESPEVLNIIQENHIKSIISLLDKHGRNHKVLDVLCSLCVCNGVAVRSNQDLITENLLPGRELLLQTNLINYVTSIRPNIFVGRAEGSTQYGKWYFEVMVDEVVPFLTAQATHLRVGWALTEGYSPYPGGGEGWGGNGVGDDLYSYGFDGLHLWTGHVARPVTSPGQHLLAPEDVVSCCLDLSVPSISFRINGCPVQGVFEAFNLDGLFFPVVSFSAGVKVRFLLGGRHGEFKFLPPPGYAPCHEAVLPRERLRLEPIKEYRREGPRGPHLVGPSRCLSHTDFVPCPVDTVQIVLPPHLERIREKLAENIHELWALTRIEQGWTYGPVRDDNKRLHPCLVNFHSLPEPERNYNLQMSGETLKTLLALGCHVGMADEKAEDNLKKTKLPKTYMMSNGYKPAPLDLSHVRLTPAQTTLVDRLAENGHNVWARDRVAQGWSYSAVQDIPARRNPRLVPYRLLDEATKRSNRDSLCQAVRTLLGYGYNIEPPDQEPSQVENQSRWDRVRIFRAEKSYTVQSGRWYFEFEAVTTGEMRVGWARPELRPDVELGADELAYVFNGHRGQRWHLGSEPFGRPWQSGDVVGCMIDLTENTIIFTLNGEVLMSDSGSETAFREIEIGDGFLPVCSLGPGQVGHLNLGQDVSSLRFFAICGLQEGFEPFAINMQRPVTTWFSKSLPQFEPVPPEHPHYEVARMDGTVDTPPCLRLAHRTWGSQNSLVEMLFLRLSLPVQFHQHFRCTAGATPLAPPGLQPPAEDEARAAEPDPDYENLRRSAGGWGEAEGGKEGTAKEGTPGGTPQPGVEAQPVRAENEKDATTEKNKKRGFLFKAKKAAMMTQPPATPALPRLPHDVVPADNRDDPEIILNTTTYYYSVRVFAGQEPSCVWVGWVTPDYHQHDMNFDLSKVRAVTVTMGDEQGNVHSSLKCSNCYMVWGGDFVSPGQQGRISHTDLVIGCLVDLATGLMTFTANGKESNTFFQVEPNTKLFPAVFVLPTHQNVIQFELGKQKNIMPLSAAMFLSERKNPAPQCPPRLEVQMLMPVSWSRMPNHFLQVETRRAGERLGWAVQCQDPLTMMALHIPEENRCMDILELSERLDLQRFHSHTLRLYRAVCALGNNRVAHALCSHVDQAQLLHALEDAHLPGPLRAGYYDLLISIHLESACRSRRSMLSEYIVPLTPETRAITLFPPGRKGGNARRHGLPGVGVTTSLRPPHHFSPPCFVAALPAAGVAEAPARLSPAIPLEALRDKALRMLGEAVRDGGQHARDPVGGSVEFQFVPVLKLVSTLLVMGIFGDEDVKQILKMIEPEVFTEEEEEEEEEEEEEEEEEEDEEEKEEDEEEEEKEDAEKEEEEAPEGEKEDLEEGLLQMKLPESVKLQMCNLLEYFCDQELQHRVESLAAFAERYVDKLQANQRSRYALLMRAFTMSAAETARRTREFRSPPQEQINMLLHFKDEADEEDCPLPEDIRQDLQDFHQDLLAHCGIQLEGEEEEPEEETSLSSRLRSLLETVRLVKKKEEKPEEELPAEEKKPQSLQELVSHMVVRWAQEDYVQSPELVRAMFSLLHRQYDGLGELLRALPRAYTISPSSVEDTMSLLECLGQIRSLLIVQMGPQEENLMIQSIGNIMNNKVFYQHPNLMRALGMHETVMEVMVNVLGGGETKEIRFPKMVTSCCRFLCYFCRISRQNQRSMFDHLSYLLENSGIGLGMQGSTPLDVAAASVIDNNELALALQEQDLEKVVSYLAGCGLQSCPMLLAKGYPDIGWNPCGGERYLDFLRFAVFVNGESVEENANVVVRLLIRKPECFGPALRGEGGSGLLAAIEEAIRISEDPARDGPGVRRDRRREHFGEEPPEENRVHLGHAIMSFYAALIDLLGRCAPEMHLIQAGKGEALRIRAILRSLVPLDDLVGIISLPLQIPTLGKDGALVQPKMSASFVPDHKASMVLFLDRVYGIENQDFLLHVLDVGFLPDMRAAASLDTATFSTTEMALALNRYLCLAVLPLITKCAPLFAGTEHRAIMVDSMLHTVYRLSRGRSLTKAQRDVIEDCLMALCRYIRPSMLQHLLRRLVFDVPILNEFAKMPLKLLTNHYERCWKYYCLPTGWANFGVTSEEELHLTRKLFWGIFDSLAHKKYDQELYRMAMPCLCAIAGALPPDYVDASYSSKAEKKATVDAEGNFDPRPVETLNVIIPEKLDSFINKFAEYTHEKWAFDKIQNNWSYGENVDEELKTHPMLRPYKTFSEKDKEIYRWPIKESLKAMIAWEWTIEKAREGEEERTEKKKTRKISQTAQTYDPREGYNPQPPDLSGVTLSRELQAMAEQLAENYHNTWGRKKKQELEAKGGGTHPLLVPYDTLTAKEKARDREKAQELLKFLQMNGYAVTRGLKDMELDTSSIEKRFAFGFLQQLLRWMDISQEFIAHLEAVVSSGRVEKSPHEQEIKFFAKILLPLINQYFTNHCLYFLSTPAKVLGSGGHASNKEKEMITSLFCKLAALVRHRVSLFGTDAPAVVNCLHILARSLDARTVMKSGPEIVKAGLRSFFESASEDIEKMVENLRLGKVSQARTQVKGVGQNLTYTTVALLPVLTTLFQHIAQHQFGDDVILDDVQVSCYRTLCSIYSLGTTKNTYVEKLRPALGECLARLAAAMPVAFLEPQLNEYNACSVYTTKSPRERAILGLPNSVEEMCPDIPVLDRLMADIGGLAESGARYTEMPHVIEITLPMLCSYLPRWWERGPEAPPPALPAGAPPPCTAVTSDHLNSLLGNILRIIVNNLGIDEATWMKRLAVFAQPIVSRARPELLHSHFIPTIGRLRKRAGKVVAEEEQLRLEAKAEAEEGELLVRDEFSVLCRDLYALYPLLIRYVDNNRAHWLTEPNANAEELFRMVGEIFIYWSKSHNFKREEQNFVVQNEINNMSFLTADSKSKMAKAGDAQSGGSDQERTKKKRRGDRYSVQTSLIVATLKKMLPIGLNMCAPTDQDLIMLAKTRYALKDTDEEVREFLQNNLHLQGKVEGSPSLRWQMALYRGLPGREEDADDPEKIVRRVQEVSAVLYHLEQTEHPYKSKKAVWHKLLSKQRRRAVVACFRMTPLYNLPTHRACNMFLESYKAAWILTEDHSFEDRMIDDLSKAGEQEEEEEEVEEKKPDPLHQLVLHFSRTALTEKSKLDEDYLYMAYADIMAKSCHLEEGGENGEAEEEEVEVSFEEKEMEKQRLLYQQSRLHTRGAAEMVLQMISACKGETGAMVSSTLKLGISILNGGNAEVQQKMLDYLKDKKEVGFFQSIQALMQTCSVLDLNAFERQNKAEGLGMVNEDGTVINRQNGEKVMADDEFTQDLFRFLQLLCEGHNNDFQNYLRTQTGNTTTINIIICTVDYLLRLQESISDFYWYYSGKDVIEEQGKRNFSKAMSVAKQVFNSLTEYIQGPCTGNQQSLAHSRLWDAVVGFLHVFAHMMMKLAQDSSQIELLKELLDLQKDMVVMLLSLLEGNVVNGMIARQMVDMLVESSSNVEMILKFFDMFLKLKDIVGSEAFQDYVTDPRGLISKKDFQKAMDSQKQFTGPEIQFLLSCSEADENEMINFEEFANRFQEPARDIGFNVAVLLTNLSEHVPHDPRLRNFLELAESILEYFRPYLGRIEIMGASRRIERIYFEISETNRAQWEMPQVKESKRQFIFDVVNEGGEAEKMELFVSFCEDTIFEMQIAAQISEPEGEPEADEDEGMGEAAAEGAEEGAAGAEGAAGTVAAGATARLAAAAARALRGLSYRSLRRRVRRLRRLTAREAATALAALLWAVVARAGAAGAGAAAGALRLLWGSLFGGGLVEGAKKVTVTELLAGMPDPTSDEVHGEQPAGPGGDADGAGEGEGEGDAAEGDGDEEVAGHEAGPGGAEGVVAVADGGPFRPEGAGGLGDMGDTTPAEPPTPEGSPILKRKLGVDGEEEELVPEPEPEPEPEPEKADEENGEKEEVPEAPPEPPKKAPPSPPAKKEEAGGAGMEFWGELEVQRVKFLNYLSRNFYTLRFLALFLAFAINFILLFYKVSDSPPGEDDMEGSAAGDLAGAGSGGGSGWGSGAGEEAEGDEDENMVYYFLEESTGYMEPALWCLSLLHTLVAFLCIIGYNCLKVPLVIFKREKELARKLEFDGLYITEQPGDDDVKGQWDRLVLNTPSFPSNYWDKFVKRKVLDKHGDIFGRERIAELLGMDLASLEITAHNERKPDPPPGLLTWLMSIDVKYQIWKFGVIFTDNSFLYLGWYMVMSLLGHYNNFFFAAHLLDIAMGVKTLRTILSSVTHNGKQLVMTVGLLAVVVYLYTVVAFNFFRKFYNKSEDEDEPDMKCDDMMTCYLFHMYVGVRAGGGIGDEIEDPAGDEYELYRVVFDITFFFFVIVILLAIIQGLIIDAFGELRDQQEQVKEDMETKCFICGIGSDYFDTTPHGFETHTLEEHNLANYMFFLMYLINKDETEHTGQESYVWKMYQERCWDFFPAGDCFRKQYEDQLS
SR Ca^2+ release channel (junctional SR vesicles from rabbit skeletal muscle), sequence (P11716 whole entry): as above
T1 sequence (P11716 whole entry): as above

**Q.** With CC1=C(C(C)C)[C@@H](OC(=O)c2ccc[nH]2)[C@@]2(O)[C@@]3(C)CC(=O)O[C@@]4([C@H](O)[C@@H](C)CC[C@]34O)[C@@]12O [Anhydro-Ryanodine, reference compound] as the molecule, how does the IC50 [1] read?
**A.** > 1000 nM

**Q.** What about the IC50 ([2]; first embodiment) of the same molecule?
**A.** > 1000 nM

**Q.** And the Kd ([2]; first embodiment)?
**A.** > 350 nM

**Q.** What does the source list for CC1CCC2(O)C3(C)CC4(O)OC2(C1O)C1(O)C3(O)C(OC(=O)c2ccc[nH]2)C(O)(C(C)C)C41C (stereo not drawn) [Ryanodine, ryanodine]?
**A.** effect on active uptake of Ca^++ by skeletal muscle SR (in words) [3]: obstruct active uptake; opening (activation) of the SR CRC (in words) [4]: activates the SR CRC at low μM concentrations; also recorded: induces full opening of the SR CRC; concentration inducing deactivation of the channel [4, 8]: higher than 30 μM; concentration of maximal channel activation [4, 8]: about 30 μM; effect on mammalian skeletal muscle (in words) [5]: irreversible contracture; closing of the SR Ca^++ release channel (in words) ([6]; I, NMDS: concentrations as high as 300 μM, ryanodine, dehydroryanodine: >μM): closes or inactivates the SR Ca^++ release channels; also recorded: inhibits Ca^++ flux by inactivating or closing the channel; also recorded: the channel is closed; opening of the SR Ca^++ release channel (in words) ([6]; ryanodine, dehydroryanodine: low concentrations (<μM)): opens the SR Ca^++ release channel/ryanodine receptor; opening of the SR Ca^++ release channel (in words) ([6]; ryanodine, dehydroryanodine: low concentrations (<μM), listed as ryanodine): enhances Ca^++ flux across the SR membrane by opening the SR Ca^++ release channel; also recorded: the Ca^++ release channel is opened; effect on mammalian cardiac muscle (in words) (mammalian cardiac muscle): negative inotropic effect

**Q.** What does the source list for CC1CCC2(O)C3(C)CC4(O)OC2(C1OC(=O)CCN)C1(O)C3(O)C(OC(=O)c2ccc[nH]2)C(O)(C(C)C)C41C (stereo not drawn) [V-II, O10eq -β-Alanyl-Ryanodine]?
**A.** opening (activation) of the SR CRC (in words) [4]: induces full opening of the SR CRC; EC (maximal activation) ([4]; 3 s, 45Ca2+ efflux, skeletal SR vesicles, read-out: concentration of maximal channel activation): 10 µM; closing (deactivation) of the SR CRC (in words) [4]: none of the closing action seen with high concentrations of ryanodine; shift of activation curve relative to ryanodine ([4]; towards lower concentrations): three-fold; pharmacological profile (in words) [4]: altered--unidirectional--pharmacological profile, differing from the biphasic profile of ryanodine; relative binding affinity compared with ryanodine (in words) [7]: two to three-fold greater RBA; binding affinity for the ryanodine receptor (in words) [2]: approximately four-fold higher affinity; Kd ([2]; Table I, mean ± standard deviation of replicates): 1 ± 0.3 nM; IC50 ([2]; V-II from direct preparation by hydrogenolysis of IV in presence of triethylamine): 4.3 nM; IC50 ([2]; first embodiment): 2.8 ± 0.8 nM; Kd ([2]; first embodiment): 1 nM; binding affinity to the ryanodine receptor relative to ryanodine (times stronger/greater) ([2]; vs ryanodine): 3.5-4 times and 4 times; opening of the SR Ca^++ release channel (in words) [6]: exhibits only the ability to enhance Ca^++ flux by opening the SR Ca^++ channel

**Q.** For CC1CCC2(O)C3(C)CC4(O)OC2(C1OC(=O)CCNC(=N)N)C1(O)C3(O)C(OC(=O)c2ccc[nH]2)C(O)(C(C)C)C41C (stereo not drawn) [XXI, O10eq -β-Guanidinopropionyl-Ryanodine], which “opening (activation) of the SR CRC (in words)” value [4] is on record?
**A.** appears to be purely an activator of the SR CRC

**Q.** What about the “closing (deactivation) of the SR CRC (in words)” value [4] of the same molecule?
**A.** entirely lack the ability of ryanodine to close the SR CRC

**Q.** What about the “pharmacological profile (in words)” value [4] of the same molecule?
**A.** altered--unidirectional--pharmacological profile, differing from the biphasic profile of ryanodine

**Q.** What about the IC50 ([7]; Table II, more highly purified standards, read-out: IC50 (nM) ± S.D.) of the same molecule?
**A.** 1.1 ± 0.1 nM

**Q.** And the “relative binding affinity compared with ryanodine (in words)” value [7]?
**A.** about six times greater than that of ryanodine

**Q.** And the “relative binding affinity compared with ryanodine (in words)” value ([7]; listed as O10eq -β-guanidinopropyl-ryanodine)?
**A.** high binding affinity

**Q.** For CC1CCC2(O)C3(C)CC4(O)OC2(C1OC(=O)CCNC(=O)CCNC(=O)c1cc(I)c(N=[N+]=[N-])cc1O)C1(O)C3(O)C(OC(=O)c2ccc[nH]2)C(O)(C(C)C)C41C (stereo not drawn) [XXXI, O10eq N-(4-azido-5-^125 Iodosalicyloyl)-β-alanyl-β-alanyl ryanodine], which “deactivation of the CRC in calcium flux experiments (in words)” value ([4]; concentrations greater than 1 mM, non-radioactive compound) is on record?
**A.** does not deactivate the CRC

**Q.** What about the IC50 ([2]; non-radioactive compound) of the same molecule?
**A.** 25.1 ± 2.5 nM
